Test systems include 786-0 renal; MOLT-4 leukemia; OVCAR-4 ovarian; RPMI-8226 leukemia; SNB-19 CNS; HT29 colon; HCC-2998 colon; T-47D breast; MDA-MB-231 breast; CAKI-1 renal.
Common to all, as to experiment: NCI-60 cell line screen, 48 h

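Following 48 hours of exposure in 96-well plates, responses at five concentrations were used to interpolate endpoints linearly. Here, GI50 denotes the concentration required for 50% inhibition of growth. TGI: concentration producing complete growth inhibition.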

For `NC(=O)c1ccccc1NC(=O)c1ccccc1Cl`, the GI50 with 786-0 renal, in the assay on MOLT-4 leukemia, in the assay with OVCAR-4 ovarian, with RPMI-8226 leukemia, in the assay with SNB-19 CNS and in the assay on HT29 colon was > 100 µM throughout. Also, the GI50 in the assay on HCC-2998 colon, in the assay with T-47D breast, with MDA-MB-231 breast and with CAKI-1 renal was > 100 µM each time. In addition, the TGI with 786-0 renal, in the assay with MOLT-4 leukemia, in the assay with OVCAR-4 ovarian, in the assay with RPMI-8226 leukemia, in the assay on SNB-19 CNS and in the assay with HT29 colon was > 100 µM in each case. Moreover, the TGI with HCC-2998 colon, with T-47D breast, in the assay with MDA-MB-231 breast and in the assay on CAKI-1 renal was > 100 µM in each case.
For the compound `COc1ccc(-c2cc(-c3cccc(NS(C)(=O)=O)c3)nc(N)c2C#N)cc1`, the GI50 with 786-0 renal was 0.283 µM; in the assay on MOLT-4 leukemia, 0.235 µM; in the assay on OVCAR-4 ovarian, 1.24 µM; in the assay on RPMI-8226 leukemia, 0.286 µM; in the assay on SNB-19 CNS, 0.158 µM; in the assay with HT29 colon, 0.0382 µM. Further, the GI50 in the assay with HCC-2998 colon is 0.185 µM; in the assay on T-47D breast, 0.362 µM; in the assay on MDA-MB-231 breast, 0.335 µM; in the assay on CAKI-1 renal, 0.0766 µM. In addition, the TGI in the assay with 786-0 renal was 13.7 µM; with MOLT-4 leukemia it was > 100 µM; in the assay on OVCAR-4 ovarian, 99.6 µM; with RPMI-8226 leukemia, 8.23 µM; in the assay with SNB-19 CNS it was > 84 µM; with HT29 colon, 0.731 µM. Also, the TGI with HCC-2998 colon was 2.44 µM; with T-47D breast it was 13.7 µM; in the assay on MDA-MB-231 breast it was 5.14 µM; in the assay on CAKI-1 renal it was > 34.4 µM.
As for `CC1(C)CC([P+](c2ccccc2)(c2ccccc2)c2ccccc2)=NN1`, the GI50 in the assay with 786-0 renal is 26.6 µM; in the assay with MOLT-4 leukemia, 6.03 µM; in the assay on OVCAR-4 ovarian it was 3.07 µM; with RPMI-8226 leukemia, 4.41 µM; in the assay with SNB-19 CNS, 5.03 µM; with HT29 colon it was 3.29 µM. Besides, the GI50 in the assay on HCC-2998 colon is 2.79 µM; in the assay with T-47D breast it was 0.91 µM; with MDA-MB-231 breast, 13.7 µM; with CAKI-1 renal, > 100 µM. Also, the TGI in the assay on 786-0 renal, in the assay with MOLT-4 leukemia, in the assay with OVCAR-4 ovarian, in the assay with RPMI-8226 leukemia, in the assay with SNB-19 CNS and in the assay on HT29 colon was > 100 µM each time. Moreover, the TGI in the assay on HCC-2998 colon was > 100 µM; in the assay with T-47D breast, 8.44 µM; with MDA-MB-231 breast, > 100 µM; with CAKI-1 renal, > 100 µM.
As to `O=C1c2ccccc2-c2c1c1ccc([N+](=O)[O-])cc1c(=O)n2CCCNCCO`, the GI50 in the assay with 786-0 renal was 0.0479 µM; in the assay on MOLT-4 leukemia, 0.0374 µM; in the assay on OVCAR-4 ovarian it was 0.492 µM; in the assay with RPMI-8226 leukemia, 0.0359 µM; with SNB-19 CNS, 0.107 µM; in the assay on HT29 colon, 0.053 µM. Besides, the GI50 with HCC-2998 colon is 0.817 µM; in the assay with T-47D breast it was 0.042 µM; in the assay with MDA-MB-231 breast it was 1.95 µM; in the assay with CAKI-1 renal, 0.126 µM. Also, the TGI in the assay with 786-0 renal is 0.43 µM; with MOLT-4 leukemia it was 1.4 µM; in the assay on OVCAR-4 ovarian, 2.77 µM; in the assay on RPMI-8226 leukemia, 0.239 µM; in the assay on SNB-19 CNS, 1.82 µM; in the assay on HT29 colon, 0.82 µM. In addition, the TGI in the assay with HCC-2998 colon is 2.13 µM; in the assay on T-47D breast, 1.71 µM; in the assay with MDA-MB-231 breast, 3.83 µM; with CAKI-1 renal it was 1.81 µM.
`O=S(=O)(NC1=NCCN1C(=S)SN1CCn2c1nsc2=S)c1ccccc1Cl`: the GI50 was 16.7 µM in the assay with 786-0 renal; 2.02 µM with MOLT-4 leukemia; 15.6 µM in the assay on OVCAR-4 ovarian; 3.5 µM in the assay with RPMI-8226 leukemia; 41 µM in the assay with SNB-19 CNS; 15.4 µM in the assay with HT29 colon. Moreover, the GI50 is 15.9 µM in the assay on HCC-2998 colon, 17 µM in the assay on T-47D breast, 22.5 µM in the assay on MDA-MB-231 breast and 12.3 µM in the assay on CAKI-1 renal. In addition, the TGI with 786-0 renal is 39.1 µM; in the assay with MOLT-4 leukemia it was 14.1 µM; in the assay with OVCAR-4 ovarian, > 100 µM; with RPMI-8226 leukemia it was 26.2 µM; with SNB-19 CNS it was > 100 µM; in the assay on HT29 colon it was > 100 µM. The TGI is 29.5 µM with HCC-2998 colon, > 100 µM with T-47D breast, 71.1 µM in the assay on MDA-MB-231 breast and 41.6 µM with CAKI-1 renal.
Turning to `CCOC(=O)C(C(=O)OCC)C(=O)c1ccccc1C(=O)c1ccccc1`, the TGI in the assay with 786-0 renal was > 100 µM; in the assay on MOLT-4 leukemia, 83.6 µM; with OVCAR-4 ovarian it was > 100 µM; with SNB-19 CNS, > 100 µM; in the assay with HT29 colon it was > 100 µM; in the assay with HCC-2998 colon, > 100 µM. The TGI in the assay with T-47D breast, with MDA-MB-231 breast and with CAKI-1 renal was > 100 µM in each case.
Turning to `Clc1ccc(CNc2nccc(-c3cnn4ncccc34)n2)cc1`, the GI50 in the assay with 786-0 renal is 9.19 µM; with MOLT-4 leukemia, 8.16 µM; with OVCAR-4 ovarian it was 7.47 µM; with RPMI-8226 leukemia, 5.8 µM; in the assay on SNB-19 CNS, 9.73 µM; in the assay on HT29 colon, 6.46 µM. Moreover, the GI50 with HCC-2998 colon was 6.67 µM; with T-47D breast, 5.26 µM; in the assay with MDA-MB-231 breast, 8.5 µM; with CAKI-1 renal, 5.62 µM. The TGI was 24.4 µM with 786-0 renal; > 25 µM in the assay with MOLT-4 leukemia; > 25 µM in the assay with OVCAR-4 ovarian; 20 µM in the assay on RPMI-8226 leukemia; > 25 µM in the assay with SNB-19 CNS; 21.1 µM in the assay on HT29 colon. In addition, the TGI is 18.4 µM with HCC-2998 colon, > 25 µM in the assay on T-47D breast, > 25 µM with MDA-MB-231 breast and > 18.8 µM in the assay on CAKI-1 renal.
As to `CN(C)CCSCCO`, the TGI in the assay with 786-0 renal, in the assay with OVCAR-4 ovarian, in the assay on RPMI-8226 leukemia, in the assay on SNB-19 CNS, in the assay on HT29 colon and in the assay on HCC-2998 colon was > 100 µM each time. In addition, the TGI in the assay on T-47D breast, in the assay on MDA-MB-231 breast and in the assay with CAKI-1 renal was > 100 µM throughout.
For `CCCCCCCCCCCCCCCCCCOc1ccccc1CC(=O)NCC[N+](C)(C)C`, the GI50 is 3.57 µM in the assay with 786-0 renal; 3.11 µM in the assay with OVCAR-4 ovarian; 3.09 µM in the assay on HT29 colon; 3.15 µM with HCC-2998 colon; 7.6 µM with T-47D breast; 4.27 µM in the assay on MDA-MB-231 breast. In the assay on CAKI-1 renal, the GI50 is 4.39 µM. In addition, the TGI was found to be 78.7 µM with 786-0 renal; 30 µM in the assay with OVCAR-4 ovarian; 26.7 µM with HT29 colon; 21.9 µM with HCC-2998 colon; 58.9 µM in the assay on T-47D breast; 66.6 µM in the assay with MDA-MB-231 breast. This compound registered a TGI in the assay with CAKI-1 renal of 36.7 µM.
On to `N#C/C(=C\c1c(-c2ccccc2)[nH]c2ccccc12)C(=O)c1ccccc1`, for which the GI50 in the assay on 786-0 renal is 16.5 µM; in the assay with OVCAR-4 ovarian, 65.3 µM; in the assay on RPMI-8226 leukemia, 2.43 µM; in the assay with SNB-19 CNS, 16.8 µM; in the assay with HT29 colon, 3.41 µM; with HCC-2998 colon it was 14.5 µM. Moreover, the GI50 is 5.27 µM in the assay with T-47D breast, 13.2 µM with MDA-MB-231 breast and 2.45 µM in the assay with CAKI-1 renal. Besides, the TGI with 786-0 renal was > 100 µM; with OVCAR-4 ovarian, > 100 µM; in the assay on RPMI-8226 leukemia, 7.98 µM; with SNB-19 CNS, > 100 µM; in the assay on HT29 colon it was > 100 µM; in the assay with HCC-2998 colon, > 100 µM. Also, the TGI in the assay on T-47D breast, with MDA-MB-231 breast and in the assay on CAKI-1 renal was > 100 µM throughout.
Take `C=C(CNC(=O)c1ccccc1)c1ccc(C(=O)Nc2ccccc2N)cc1`: the GI50 in the assay on 786-0 renal is 7.55 µM; in the assay on MOLT-4 leukemia, 1.49 µM; in the assay on OVCAR-4 ovarian, 11.6 µM; in the assay on SNB-19 CNS, 80.2 µM; with HT29 colon, 3.86 µM; with HCC-2998 colon, 9.3 µM. The GI50 is 4.99 µM with T-47D breast, 5.56 µM in the assay on MDA-MB-231 breast and 4.09 µM in the assay on CAKI-1 renal. Besides, the TGI in the assay on 786-0 renal, with MOLT-4 leukemia, with OVCAR-4 ovarian, with SNB-19 CNS, with HT29 colon and in the assay with HCC-2998 colon was > 100 µM in each case. Also, the TGI was > 100 µM in the assay on T-47D breast, 45.1 µM in the assay on MDA-MB-231 breast and 45.4 µM with CAKI-1 renal.
With `CCN(CC)CCn1c2ccc(OC)cc2c2sc3cc(OC)ccc3c(=O)c21`, the GI50 with 786-0 renal was 1.59 µM; in the assay with MOLT-4 leukemia, 0.383 µM; in the assay on OVCAR-4 ovarian it was 1.84 µM; in the assay with SNB-19 CNS it was 2.43 µM; with HT29 colon, 1.51 µM; in the assay on HCC-2998 colon, 1.48 µM. In addition, the GI50 in the assay on T-47D breast was 2 µM; in the assay with MDA-MB-231 breast, 1.54 µM; with CAKI-1 renal it was 1.65 µM. The TGI was found to be 3.23 µM in the assay on 786-0 renal; 1.89 µM in the assay on MOLT-4 leukemia; 4.88 µM in the assay with OVCAR-4 ovarian; 10 µM with SNB-19 CNS; 9.12 µM in the assay on HT29 colon; 3.14 µM in the assay on HCC-2998 colon. Also, the TGI in the assay on T-47D breast is 4.89 µM; with MDA-MB-231 breast, 3.31 µM; in the assay on CAKI-1 renal it was 3.77 µM.
